Test results from PubChem BioAssay (NCI).
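A five-concentration, 48-hour dose response in 96-well plates underlies each endpoint, interpolated linearly between surrounding concentrations. At the GI50, growth is halved. Definition used: TGI = concentration required for complete inhibition of growth.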

Columns and labels:
Assay in all cases: NCI tumour cell line growth inhibition, 48 h
LOX IMVI melanoma = test system: LOX IMVI melanoma
SF-539 CNS = test system: SF-539 CNS
DU-145 prostate = test system: DU-145 prostate
PC-3 prostate = test system: PC-3 prostate
MDA-MB-435 = test system: MDA-MB-435
OVCAR-8 ovarian = test system: OVCAR-8 ovarian
T-47D breast = test system: T-47D breast
SK-MEL-2 melanoma = test system: SK-MEL-2 melanoma
RXF 393 renal = test system: RXF 393 renal
SF-268 CNS = test system: SF-268 CNS
ACHN renal = test system: ACHN renal
786-0 renal = test system: 786-0 renal
HCC-2998 colon = test system: HCC-2998 colon
UACC-62 melanoma = test system: UACC-62 melanoma
NCI-H226 lung = test system: NCI-H226 lung
SNB-19 CNS = test system: SNB-19 CNS
SK-MEL-5 melanoma = test system: SK-MEL-5 melanoma
OVCAR-3 ovarian = test system: OVCAR-3 ovarian
UO-31 renal = test system: UO-31 renal
IGROV1 ovarian = test system: IGROV1 ovarian
A498 renal = test system: A498 renal
OVCAR-4 ovarian = test system: OVCAR-4 ovarian
U251 CNS = test system: U251 CNS
SK-MEL-28 melanoma = test system: SK-MEL-28 melanoma
EKVX NSCLC = test system: EKVX NSCLC
KM12 colon = test system: KM12 colon
COLO 205 colon = test system: COLO 205 colon
BT-549 breast = test system: BT-549 breast
SF-295 CNS = test system: SF-295 CNS
MCF7 breast = test system: MCF7 breast
M14 melanoma = test system: M14 melanoma
HCT-116 colon = test system: HCT-116 colon
NCI-H522 lung = test system: NCI-H522 lung
K-562 leukemia = test system: K-562 leukemia
TK-10 renal = test system: TK-10 renal
SK-OV-3 ovarian = test system: SK-OV-3 ovarian
HCT-15 colon = test system: HCT-15 colon
HOP-92 NSCLC = test system: HOP-92 NSCLC
HOP-62 NSCLC = test system: HOP-62 NSCLC
OVCAR-5 ovarian = test system: OVCAR-5 ovarian
UACC-257 melanoma = test system: UACC-257 melanoma
HT29 colon = test system: HT29 colon
MDA-MB-231 breast = test system: MDA-MB-231 breast
SW-620 colon = test system: SW-620 colon
CAKI-1 renal = test system: CAKI-1 renal
SNB-75 CNS = test system: SNB-75 CNS
MALME-3M melanoma = test system: MALME-3M melanoma
HS 578T breast = test system: HS 578T breast
A549 NSCLC = test system: A549 NSCLC
NCI/ADR-RES ovarian = test system: NCI/ADR-RES ovarian
NCI-H460 lung = test system: NCI-H460 lung
RPMI-8226 leukemia = test system: RPMI-8226 leukemia
NCI-H23 lung = test system: NCI-H23 lung
CCRF-CEM leukemia = test system: CCRF-CEM leukemia
MOLT-4 leukemia = test system: MOLT-4 leukemia
HL-60(TB) leukemia = test system: HL-60(TB) leukemia
SN12C renal = test system: SN12C renal

C#CC(=O)Nc1cccc(Nc2nc3c(c(NCc4ccccc4)n2)CCCC3)c1
GI50 (LOX IMVI melanoma): < 0.01 µM
TGI (LOX IMVI melanoma): < 0.01 µM
GI50 (SF-539 CNS): < 0.01 µM
TGI (SF-539 CNS): < 0.01 µM
GI50 (DU-145 prostate): 0.446 µM
TGI (DU-145 prostate): 1.95 µM
GI50 (PC-3 prostate): < 0.01 µM
TGI (PC-3 prostate): 0.0344 µM
GI50 (MDA-MB-435): 1.02 µM
TGI (MDA-MB-435): 2.24 µM
GI50 (OVCAR-8 ovarian): 0.0144 µM
TGI (OVCAR-8 ovarian): 1.12 µM
GI50 (T-47D breast): 0.964 µM
TGI (T-47D breast): 3.7 µM
GI50 (SK-MEL-2 melanoma): 0.543 µM
TGI (SK-MEL-2 melanoma): 1.98 µM
GI50 (RXF 393 renal): 0.0389 µM
TGI (RXF 393 renal): 0.239 µM
GI50 (SF-268 CNS): 0.0203 µM
TGI (SF-268 CNS): 0.0958 µM
GI50 (ACHN renal): < 0.0113 µM
TGI (ACHN renal): < 0.0317 µM
GI50 (786-0 renal): < 0.01 µM
TGI (786-0 renal): < 0.01 µM
GI50 (HCC-2998 colon): 1.36 µM
TGI (HCC-2998 colon): 2.9 µM
GI50 (UACC-62 melanoma): 0.0851 µM
TGI (UACC-62 melanoma): 0.279 µM
GI50 (NCI-H226 lung): 0.147 µM
TGI (NCI-H226 lung): 0.551 µM
GI50 (SNB-19 CNS): 0.591 µM
TGI (SNB-19 CNS): 1.98 µM
GI50 (SK-MEL-5 melanoma): 1.12 µM
TGI (SK-MEL-5 melanoma): 2.44 µM
GI50 (OVCAR-3 ovarian): 0.042 µM
TGI (OVCAR-3 ovarian): 0.175 µM
GI50 (UO-31 renal): < 0.01 µM
TGI (UO-31 renal): < 0.01 µM
GI50 (IGROV1 ovarian): < 0.01 µM
TGI (IGROV1 ovarian): 0.0598 µM
GI50 (A498 renal): 0.115 µM
TGI (A498 renal): 0.918 µM
GI50 (OVCAR-4 ovarian): 0.291 µM
TGI (OVCAR-4 ovarian): 1.02 µM
GI50 (U251 CNS): 0.0208 µM
TGI (U251 CNS): 0.0776 µM
GI50 (SK-MEL-28 melanoma): 1.49 µM
TGI (SK-MEL-28 melanoma): 2.97 µM
GI50 (EKVX NSCLC): 0.34 µM
TGI (EKVX NSCLC): 1.99 µM
GI50 (KM12 colon): 0.0225 µM
TGI (KM12 colon): 0.337 µM
GI50 (COLO 205 colon): 0.401 µM
TGI (COLO 205 colon): 1.14 µM
GI50 (BT-549 breast): 0.0266 µM
TGI (BT-549 breast): 0.0776 µM
GI50 (SF-295 CNS): 0.0152 µM
TGI (SF-295 CNS): 0.0361 µM
GI50 (MCF7 breast): 0.296 µM
TGI (MCF7 breast): 1.81 µM
GI50 (M14 melanoma): 0.261 µM
TGI (M14 melanoma): 1.22 µM
GI50 (HCT-116 colon): 0.12 µM
TGI (HCT-116 colon): 0.291 µM
GI50 (NCI-H522 lung): < 0.01 µM
TGI (NCI-H522 lung): < 0.01 µM
GI50 (K-562 leukemia): 1.39 µM
TGI (K-562 leukemia): 5.96 µM
GI50 (TK-10 renal): 1.49 µM
TGI (TK-10 renal): 2.85 µM
GI50 (SK-OV-3 ovarian): 0.336 µM
TGI (SK-OV-3 ovarian): 0.793 µM
GI50 (HCT-15 colon): 0.231 µM
TGI (HCT-15 colon): 1.14 µM
GI50 (HOP-92 NSCLC): < 0.01 µM
TGI (HOP-92 NSCLC): < 0.01 µM
GI50 (HOP-62 NSCLC): 0.0612 µM
TGI (HOP-62 NSCLC): 0.435 µM

OCCCCC#Cc1ccccc1C#Cc1cccc(O)c1
GI50 (LOX IMVI melanoma): 16.7 µM
TGI (LOX IMVI melanoma): 30.9 µM
GI50 (OVCAR-5 ovarian): 16.9 µM
TGI (OVCAR-5 ovarian): 32.1 µM
GI50 (SF-539 CNS): 17.5 µM
TGI (SF-539 CNS): 35.8 µM
GI50 (DU-145 prostate): 17.4 µM
TGI (DU-145 prostate): 40.9 µM
GI50 (PC-3 prostate): 16.9 µM
TGI (PC-3 prostate): 38.1 µM
GI50 (MDA-MB-435): 16.1 µM
TGI (MDA-MB-435): 32.8 µM
GI50 (OVCAR-8 ovarian): 18.2 µM
TGI (OVCAR-8 ovarian): 36.9 µM
GI50 (T-47D breast): 14.4 µM
TGI (T-47D breast): 34.7 µM
GI50 (SK-MEL-2 melanoma): 18.6 µM
TGI (SK-MEL-2 melanoma): 38.8 µM
GI50 (RXF 393 renal): 2.3 µM
TGI (RXF 393 renal): 13.9 µM
GI50 (UACC-257 melanoma): 18.1 µM
TGI (UACC-257 melanoma): 33.1 µM
GI50 (SF-268 CNS): 18.5 µM
TGI (SF-268 CNS): 42.6 µM
GI50 (HT29 colon): 17.1 µM
TGI (HT29 colon): 31.8 µM
GI50 (ACHN renal): 19.1 µM
TGI (ACHN renal): 41.6 µM
GI50 (786-0 renal): 13.8 µM
TGI (786-0 renal): 29.2 µM
GI50 (HCC-2998 colon): 19.1 µM
TGI (HCC-2998 colon): 35.5 µM
GI50 (UACC-62 melanoma): 13.3 µM
TGI (UACC-62 melanoma): 26.9 µM
GI50 (NCI-H226 lung): 22 µM
TGI (NCI-H226 lung): 47.3 µM
GI50 (SNB-19 CNS): 15.5 µM
TGI (SNB-19 CNS): 32.8 µM
GI50 (SK-MEL-5 melanoma): 17.8 µM
TGI (SK-MEL-5 melanoma): 32.7 µM
GI50 (OVCAR-3 ovarian): 20 µM
TGI (OVCAR-3 ovarian): 44.1 µM
GI50 (MDA-MB-231 breast): 12.8 µM
TGI (MDA-MB-231 breast): 26.7 µM
GI50 (UO-31 renal): 15.9 µM
TGI (UO-31 renal): 32.5 µM
GI50 (IGROV1 ovarian): 16.8 µM
TGI (IGROV1 ovarian): 33.3 µM
GI50 (A498 renal): 18.5 µM
TGI (A498 renal): 39.4 µM
GI50 (SW-620 colon): 17.5 µM
TGI (SW-620 colon): 33.3 µM
GI50 (OVCAR-4 ovarian): 16.1 µM
TGI (OVCAR-4 ovarian): 32.1 µM
GI50 (U251 CNS): 15 µM
TGI (U251 CNS): 31.3 µM
GI50 (CAKI-1 renal): 16.2 µM
TGI (CAKI-1 renal): 33.6 µM
GI50 (SK-MEL-28 melanoma): 14.2 µM
TGI (SK-MEL-28 melanoma): 28.2 µM
GI50 (SNB-75 CNS): 16.1 µM
TGI (SNB-75 CNS): 38.1 µM
GI50 (MALME-3M melanoma): 18.9 µM
TGI (MALME-3M melanoma): 40.8 µM
GI50 (EKVX NSCLC): 23.5 µM
TGI (EKVX NSCLC): 57 µM
GI50 (KM12 colon): 17.1 µM
TGI (KM12 colon): 41.3 µM
GI50 (COLO 205 colon): 19.7 µM
TGI (COLO 205 colon): 35.6 µM
GI50 (BT-549 breast): 16 µM
TGI (BT-549 breast): 42.1 µM
GI50 (HS 578T breast): 31.2 µM
TGI (HS 578T breast): 94.7 µM
GI50 (SF-295 CNS): 21 µM
TGI (SF-295 CNS): 41.7 µM
GI50 (MCF7 breast): 35.7 µM
TGI (MCF7 breast): > 100 µM
GI50 (M14 melanoma): 17.4 µM
TGI (M14 melanoma): 35.1 µM
GI50 (A549 NSCLC): 15.7 µM
TGI (A549 NSCLC): 32.2 µM
GI50 (NCI/ADR-RES ovarian): 20 µM
TGI (NCI/ADR-RES ovarian): 47 µM
GI50 (NCI-H460 lung): 18.5 µM
TGI (NCI-H460 lung): 40.7 µM
GI50 (HCT-116 colon): 15.5 µM
TGI (HCT-116 colon): 30 µM
GI50 (RPMI-8226 leukemia): 20.7 µM
TGI (RPMI-8226 leukemia): 53.7 µM
GI50 (NCI-H522 lung): 14.3 µM
TGI (NCI-H522 lung): 28.9 µM
GI50 (K-562 leukemia): 19.2 µM
TGI (K-562 leukemia): 40.4 µM
GI50 (TK-10 renal): 19.2 µM
TGI (TK-10 renal): 38.2 µM
GI50 (SK-OV-3 ovarian): 19.1 µM
TGI (SK-OV-3 ovarian): 43.3 µM
GI50 (HCT-15 colon): 13.6 µM
TGI (HCT-15 colon): 27 µM
GI50 (NCI-H23 lung): 18 µM
TGI (NCI-H23 lung): 36.1 µM
GI50 (CCRF-CEM leukemia): 18.8 µM
TGI (CCRF-CEM leukemia): 48.6 µM
GI50 (HOP-92 NSCLC): 19.8 µM
TGI (HOP-92 NSCLC): 40.7 µM
GI50 (MOLT-4 leukemia): 18 µM
TGI (MOLT-4 leukemia): 40.7 µM
GI50 (HL-60(TB) leukemia): 19.4 µM
TGI (HL-60(TB) leukemia): 41.9 µM
GI50 (SN12C renal): 17.9 µM
TGI (SN12C renal): 40 µM
